From US6403554B2, “Polyunsaturated fatty acid derivatives and their use” (Ardenia Investments Ltd., priority 1998, dated 2002)
“Also recorded” adds a separate entry of the source.

System: antibody-forming cells (AFC) in the spleen
Test: Influence of compound on humoral immune response to sheep erythrocytes, C57B1/6 female mice (AFC in spleen, hemagglutinins)
Type: in vivo
Settings: for Amount of antibody-forming cells per 10^6 spleen cells / Amount of antibody-forming cells per spleen / Effect on relative amount of AFC (per 10^6 spleen cells) / Effect on total AFC amount (per spleen) / Effect on hemagglutinin titers / Spleen index / Amount of hemagglutinins: i.v.; for Amount of antibody-forming cells per 10^6 spleen cells / Amount of antibody-forming cells per spleen / Effect on relative amount of AFC (per 10^6 spleen cells) / Effect on total AFC amount (per spleen): 5th day; for Amount of antibody-forming cells per 10^6 spleen cells / Amount of antibody-forming cells per spleen: M ± SEM; for Effect on relative amount of AFC (per 10^6 spleen cells) / Effect on total AFC amount (per spleen) / Effect on hemagglutinin titers: vs control; for Spleen index: with SRBC i.p.; for Amount of hemagglutinins: serum
Method: The increase was calculated as compared with the amount of cells in the animals immunised only with sheep erythrocytes.
0.15 ml of compound 10 was administered intravenously to 6 mice females of CS7B1/6 line (weight 18-22 g) in doses of 45.5, 91 and 136.5 μg of compound 10 per capita for each testing group according to the dose. Simultaneously, a suspension of 5·10^7 sheep erythrocytes was injected intraperitoneally (0.2 ml per capita). Mice in the control group were injected intravenously with equal volume of saline. The effects of compound 10 on humoral immune response were analyzed both by counting the quantity of AFC in the spleen according to Cunningham (per 10^6 spleen cells and per spleen) and estimating the titers of hemagglutining antibodies in serum of the animals (Cunningham A. J., Nature, 1965, Vol.207, No 5001. P.1106-1107), while the titers of hemagglutinating antibodies were evaluated according to litterature (Evans J. et al., Cell, 1974; Vol 3., p.153-158, Feizi T., Menger E., Transfusion, 1970, Vol. 10, p.33-35,).
(§1) 0.15 ml of compound 11 was administered intravenously to 6 female mice of the C57B1/6 line (weight 18-22 g) in doses of 45.5, 91 and 136.5 μg of compound 11 per capita for each testing group according to the dose. Simultaneously, a suspension of 5·10^7 sheep erytrocytes was injected intraperitoneally (0.2 ml per capita). Mice in the control group were injected intravenously with an equal volume of saline. The effects of compound 11 on humoral immune response was analysed both by counting the quantity of AFC in the spleen according to Cunningham (per 10^6 spleen cells and per spleen) and estimating the titers of hemagglutining antibodies in serum of the animals.
as §1, with “12” for “11”, “erythrocytes” for “erytrocytes”, “analyzed” for “analysed”
as §1, with “compound 8” for “compound 11”, “sheep erythrocytes” for “sheep erytrocytes”, “Mice of” for “Mice in”, “response were analyzed” for “response was analysed”
0.15 ml of compound 3 was administered intravenously to 6 female mice of the C57B1/6 line (weight 18-22 g) in doses of 45.5, 91 and 136.5 μg of compound 3 per capita for each testing group according to the dose. Simultaneously, a suspension of 5·10^7 sheep erytrocytes was injected intraperitoneally (0.2 ml per capita). Mice of the control group were injected intravenously with equal volume of saline.

Row | Structure (SMILES) | Amount of antibody-forming cells per 10^6 spleen cells (45.5 μg/mouse) | Amount of antibody-forming cells per spleen (45.5 μg/mouse) | Effect on relative amount of AFC (per 10^6 spleen cells) (45.5 μg/mouse) | Effect on total AFC amount (per spleen) (45.5 μg/mouse) | Effect on hemagglutinin titers (45.5 μg/mouse) | Spleen index (45.5 μg/mouse) | Amount of antibody-forming cells per 10^6 spleen cells (91 μg/mouse) | Amount of antibody-forming cells per spleen (91 μg/mouse) | Effect on relative amount of AFC (per 10^6 spleen cells) (91 μg/mouse) | Effect on total AFC amount (per spleen) (91 μg/mouse) | Effect on hemagglutinin titers (91 μg/mouse) | Spleen index (91 μg/mouse) | immunostimulating action (136.5 μg/mouse) | Amount of antibody-forming cells per 10^6 spleen cells (136.5 μg/mouse) | Amount of antibody-forming cells per spleen (136.5 μg/mouse) | Effect on hemagglutinin titers (136.5 μg/mouse) | Spleen index (136.5 μg/mouse) | Immunogenic activity (45.5 and 91 μg/mouse) | Immunogenic activity (45.5 μg/mouse) | immunostimulating effect in vivo in micelle form (91 μg/mouse) | other results
1 | CC/C=C\C/C=C\C/C=C\C/C=C\C/C=C\C/C=C\CCC(=O)N[C@@H](Cc1ccc(OP(=O)(O)O)cc1)C(=O)O [Compound 12, N-(cis-4,7,10,13,16,19-docosahexaenoyl)-O-phospho-L-tyrosine] | 263.8±23.6 cells per 10^6 spleen cells | 31.8±2.8 × 10^3 | −9.4 p >0.05% | −9.1 p >0.05% | +2.8 p >0.05% | 6.3 ± 0.3 10^−3 | 307.8±30.9 cells per 10^6 spleen cells | 40.2±2.7 × 10^3 | +5.7 p > 0.05% | +14.9 p > 0.05% | +2.8 p > 0.05% | 5.9 ± 0.3 10^−3 | high immunostimulating action | 682.6±33.3 cells per 10^6 spleen cells | 69.6±6.0 × 10^3 | +7.7 p > 0.05% | 6.3 ± 0.4 10^−3 | no immunogenic activity |  |  | 
2 | CC/C=C\C/C=C\C/C=C\CCCCCCCC(=O)NCCOP(=O)(O)O [Compound 17, N-(cis-9,12,15-octadecatrienoyl)-O-phospho-2-aminoethanol] | 457.3±40.7 cells per 10^6 spleen cells | 51.1±4.4 × 10^3 | −3.0 p > 0.05% | −7.4 p > 0.05% |  | 5.8 ± 10^−3 | 523.8±45.3 cells per 10^6 spleen cells | 63.5±5.1 × 10^3 | +11.1 p > 0.05% | +15.0 p > 0.05% | +2.6 p > 0.05% | 5.7 ± 10^−3 | marked immunostimulating action | 619.6±38.9 cells per 10^6 spleen cells | 71.6±4.7 × 10^3 | +2.6 p > 0.05% | 5.9 ± 10^−3 | no immunogenic activity |  |  | Amount of hemagglutinins (45.5 μg/mouse): 7.6 ± 0.2 Log2 T; Amount of hemagglutinins (91 μg/mouse): 7.8 ± 0.3 Log2 T; Amount of hemagglutinins (136.5 μg/mouse): 7.8 ± 0.4 Log2 T
3 | CC1=C(/C=C/C(C)=C/C=C/C(C)=C/C(=O)N[C@@H](Cc2ccc(OP(=O)(O)O)cc2)C(=O)O)C(C)(C)CCC1 (stereo in doubt) [Compound 4, N-(all-trans-Retinoyl)-O-phospho-L-tyrosine] | 405.0±47.9 cells per 10^6 spleen cells | 55.0±6.7 × 10^3 | −0.3 p >0.05% | −8.9 p > 0.05% | −3.2 p > 0.05% | 6.6 ± 0.5 10^−3 | 692.9±44.8 cells per 10^6 spleen cells | 87.6±4.3 × 10^3 |  |  | +4.8 p > 0.05% | 6.3 ± 0.4 10^−3 |  | 1354.3±99.9 cells per 10^6 spleen cells | 138.9±10.0 × 10^3 |  |  |  | no immunogenic activity | display immunostimulating effect in vivo | immunostimulating action (91 and 136.5 μg/mouse): high immunostimulating action
4 | CC/C=C\C/C=C\C/C=C\CCCCCCCC(=O)N[C@@H](Cc1ccc(OP(=O)(O)O)cc1)C(=O)O [Compound 20, N-(cis-9,12,15-octadecatrienoyl)-O-phospho-L-tyrosine] | 512.8±46.2 cells per 10^6 spleen cells | 46.4±4.8 × 10^3 | −9.8 p > 0.05% | −7.4 p > 0.05% |  | 6.3 ± 0.3 10^−3 | 634.5±51.7 cells per 10^6 spleen cells | 55.7±5.6 × 10^3 | +11.6 p > 0.05% | +11.2 p > 0.05% | +1.4 p > 0.05% | 6.5 ± 0.2 10^−3 | marked immunostimulating action | 845.1±43.1 cells per 10^6 spleen cells | 75.8±7.7 × 10^3 | +2.7 p > 0.05% | 6.4 ± 0.4 10^−3 | no immunogenic activity |  |  | 
5 | CC1=C(/C=C/C(C)=C/C=C/C(C)=C\C(=O)NCCOP(=O)(O)O)C(C)(C)CCC1 [Compound 1a, N-(13cis-Retinoyl)-O-phospho-2-aminoethanol] | 815.8±70.9 cells per 10^6 spleen cells | 104.6±10.7 × 10^3 | +5.6 p > 0.05% | +16.4 p > 0.05% | −1,3 p > 0.05% | 6.1 ± 0.2 10^−3 | 997.2±43.4 cells per 10^6 spleen cells | 114.5±8.2 × 10^3 |  |  | −1,3 p > 0.05% | 6.2 ± 0.2 10^−3 |  | 1176.9±58.5 cells per 10^6 spleen cells | 149.4±9.4 × 10^3 | +6,5 p > 0.05% | 6.9 ± 0.3 10^−3 |  | no immunogenic activity | display immunostimulating effect in vivo | immunostimulating action (91 and 136.5 μg/mouse): marked immunostimulating action
6 | CC/C=C\C/C=C\C/C=C\C/C=C\C/C=C\CCCC(=O)NCCOP(=O)(O)O [Compound 13, N-(cis-5,8,11,14,17-eicosapentaenoyl)-O-phospho-2-aminoethanol] | 608.2±61.3 cells per 10^6 spleen cells | 48.2±6.5 × 10^3 | −3.2 p > 0.05% | +5.0 p > 0.05% | +7,8 p > 0.05% | 5.4 ± 0.6 10^−3 | 525.0±97.2 cells per 10^6 spleen cells | 49.4±6.2 × 10^3 | −16.5 p > 0.05% | +7.6 p > 0.65% | +5,6 p > 0.05% | 5.7 ± 0.8 10^−3 | high immunostimulating action; also recorded: marked immunostimulating action | 885.9±65.8 cells per 10^6 spleen cells | 68.2±6.9 × 10^3 | +14,4 p > 0.05% | 5.3 ± 0.4 10^−3 | no immunogenic activity |  |  | 
